Like-named read-outs stand apart in the source and are kept apart here.
Key:
[1] = test system: SMN2 minigene (full length SMN2 minigene mRNA containing SMN2 exon 7); experiment: SMN2 minigene mRNA splicing RT-qPCR assay in cultured cells; type: cell-based, human; conditions: Homo sapiens, HEK293-H, read-out: EC1.5x for production of full length SMN2 mRNA
Method in brief: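 Lysates → one-step RT-qPCR, minigene-specific primers (0.4 μM final) + GAPDH multiplex, 40 cycles. FL/GAPDH vs DMSO; EC1.5x, star-binned.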

[2] = test system: Smn protein; experiment: Smn protein assay in cultured cells (SMN HTRF); type: cell-based, human; conditions: 48 hours; for maximum fold (Fold) increase of Smn protein: SMA patient fibroblast cells, 7-point concentration data, fold increase relative to vehicle control (SMN HTRF); for EC1.5x (concentration giving 1.5-fold Smn protein increase): SMA Type 1 patient fibroblast cells (GM03813), 7-point concentration curve, SMN HTRF, concentration producing 1.5 times Smn protein vs DMSO vehicle control, read-out: EC1.5x for Smn protein expression
Method in brief: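 Smn in SMA fibroblast lysates, measured by anti-SMN HTRF after 48 h compound exposure; EC1.5x from fold change over vehicle.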

[3] = HEK293H cells stably transfected with SMN2-A minigene, 24 hours, 7-point concentration curve, 1.5-fold relative to vehicle-treated cells

Row | Structure (SMILES) | melting point | EC (1.5-fold) [1, 3] | maximum fold (Fold) increase of Smn protein [2] | EC1.5x (concentration giving 1.5-fold Smn protein increase) [2] | EC (1.5-fold) ([1]; 24 h)
1 | Cc1cccn2cc(-c3cc4ccc(N5CCCNCC5)cc4oc3=O)nc12 [Compound 281, 7-(1,4-diazepan-1-yl)-3-(8-methylimidazo[1,2-a]pyridin-2-yl)-2H-chromen-2-one] | 138 to 140 °C | 0.3 to 1 µM | ** (fold increase between >1.2 and ≤1.35) | – | –
2 | C[C@H]1CN(c2ccc3cc(-c4cn5ccsc5n4)c(=O)oc3c2)CCN1 [Compound 205, 3-(imidazo[2,1-b][1,3]thiazol-6-yl)-7-[(3S)-3-methylpiperazin-1-yl]-2H-chromen-2-one] | 230 to 233 °C | < 0.1 µM | *** (fold increase between >1.35 and ≤1.5) | – | –
3 | Cc1cn2cc(-c3cc4ccc(N5CCN(CC(C)(C)O)CC5)cc4oc3=O)nc2c(C)n1 [Compound 962, 3-(6,8-dimethylimidazo[1,2-a]pyrazin-2-yl)-7-[4-(2-hydroxy-2-methylpropyl)piperazin-1-yl]-2H-chromen-2-one] | 212 to 214 °C | < 0.1 µM | ***** (fold increase >1.65) | < 300 nM | –
4 | CCN1CCN(c2ccc3cc(-c4cn5cc(Cl)nc(C)c5n4)c(=O)oc3c2)CC1 [Compound 766, 3-(6-chloro-8-methylimidazo[1,2-a]pyrazin-2-yl)-7-(4-ethylpiperazin-1-yl)-2H-chromen-2-one] | 228 to 230 °C | < 0.1 µM | *** (fold increase between >1.35 and ≤1.5) | – | –
5 | CCc1cc(-c2cc3ccc(CCCN(C)C)cc3oc2=O)cn2cc(C)nc12 [Compound 910, 7-[3-(dimethylamino)propyl]-3-(8-ethyl-2-methylimidazo[1,2-a]pyridin-6-yl)-2H-chromen-2-one] | 123 to 126 °C | < 0.1 µM | ***** (fold increase >1.65) | < 300 nM | –
6 | C[C@H]1CN(c2ccc3cc(-c4cn5cccc(F)c5n4)c(=O)oc3c2)CCN1 [Compound 525, 3-(8-fluoroimidazo[1,2-a]pyridin-2-yl)-7-[(3S)-3-methylpiperazin-1-yl]-2H-chromen-2-one] | 190 to 193 °C | 0.1 to 0.3 µM | *** (fold increase between >1.35 and ≤1.5) | – | –
7 | Cc1cn2cc(-c3cc4ccc(N5CCN(C(C)(C)C)CC5)cc4oc3=O)nc2c(C)n1 [Compound 812, 7-(4-tert-butylpiperazin-1-yl)-3-(6,8-dimethylimidazo[1,2-a]pyrazin-2-yl)-2H-chromen-2-one] | 270 to 272 °C | < 0.1 µM | *** (fold increase between >1.35 and ≤1.5) | – | –
8 | Cc1ccn2cc(-c3cc4ccc(N5C[C@H]6CC[C@@H](C5)N6C)cc4oc3=O)nc2c1 [Compound 535, 7-[(1R,5S)-8-methyl-3,8-diazabicyclo[3.2.1]oct-3-yl]-3-(7-methylimidazo[1,2-a]pyridin-2-yl)-2H-chromen-2-one] | 224 to 229 °C | – | * (maximum fold increase of ≤1.2) | – | 1 to 3 µM
9 | Cc1cn2cc(-c3cc4ccc(N5CCN(C6COC6)CC5)cc4oc3=O)nc2c(C)n1 [Compound 823, 3-(6,8-dimethylimidazo[1,2-a]pyrazin-2-yl)-7-[4-(oxetan-3-yl)piperazin-1-yl]-2H-chromen-2-one] | 230 to 235 °C | 0.3 to 1 µM | **** (fold increase between >1.5 and ≤1.65) | 1000 to 3000 nM | –
10 | Cc1cn2cc(-c3cc4ccc(N5C[C@H]6CCN(C)[C@H]6C5)cc4oc3=O)cc2c(C)n1 [Compound 755, 3-(1,3-dimethylpyrrolo[1,2-a]pyrazin-7-yl)-7-[(3aR,6aR)-1-methylhexahydropyrrolo[3,4-b]pyrrol-5(1H)-yl]-2H-chromen-2-one] | 196 to 198 °C | < 0.1 µM | *** (fold increase between >1.35 and ≤1.5) | – | –
11 | Cc1ccn2cc(-c3cc4ccc(NC5CCN(C)CC5)cc4oc3=O)nc2c1 [Compound 474, 3-(7-methylimidazo[1,2-a]pyridin-2-yl)-7-[(1-methylpiperidin-4-yl)amino]-2H-chromen-2-one] | 224 to 230 °C | 1 to 3 µM | * (maximum fold increase of ≤1.2) | – | –
12 | Cc1cnc2nc(-c3cc4ccc(N5CCCNCC5)cc4oc3=O)cn2c1 [Compound 378, 7-(1,4-diazepan-1-yl)-3-(6-methylimidazo[1,2-a]pyrimidin-2-yl)-2H-chromen-2-one] | 275 to 278 °C | 0.1 to 0.3 µM | ** (fold increase between >1.2 and ≤1.35) | – | –
13 | O=c1oc2cc(N3CCCNCC3)ccc2cc1-c1nc(C(F)(F)F)cs1 [Compound 237, 7-(1,4-diazepan-1-yl)-3-[4-(trifluoromethyl)-1,3-thiazol-2-yl]-2H-chromen-2-one] | 200 °C | 1 to 3 µM | * (maximum fold increase of ≤1.2) | – | –

Further lines, with some results ahead:

Row | melting point | Structure (SMILES) | EC (1.5-fold) [1, 3] | maximum fold (Fold) increase of Smn protein [2] | EC1.5x (concentration giving 1.5-fold Smn protein increase) [2] | EC (1.5-fold) ([1]; 24 h)
14 | 222 to 225 °C | Cc1cn2cc(-c3cc4ccc(N5CCCNCC5)cc4oc3=O)ccc2n1 [Compound 663, 7-(1,4-diazepan-1-yl)-3-(2-methylimidazo[1,2-a]pyridin-6-yl)-2H-chromen-2-one] | < 0.1 µM | *** (fold increase between >1.35 and ≤1.5) | – | –
15 | 253 to 254 °C | Cn1c(-c2cc3ccc(N4CCN(C(=O)OCc5ccccc5)CC4)cc3oc2=O)nc2ccccc21 [Compound 43, benzyl 4-[3-(1-methyl-1H-benzimidazol-2-yl)-2-oxo-2H-chromen-7-yl]piperazine-1-carboxylate] | 3 to 30 µM | * (maximum fold increase of ≤1.2) | – | –
16 | 235 to 238 °C | O=c1oc2cc(N3CCNCC3)ccc2cc1-c1cc2ncccn2c1 [Cpd 579, 7-(piperazin-1-yl)-3-(pyrrolo[1,2-a]pyrimidin-7-yl)-2H-chromen-2-one] | 0.3 to 1 µM | * (maximum fold increase of ≤1.2) | – | –
17 | 195 to 198 °C | Cc1cn2cc(-c3cc4ccc(N5CC[C@H](N(C)C)C5)cc4oc3=O)cc2c(C)n1 [Compound 697, 7-[(3S)-3-(dimethylamino)pyrrolidin-1-yl]-3-(1,3-dimethylpyrrolo[1,2-a]pyrazin-7-yl)-2H-chromen-2-one] | < 0.1 µM | *** (fold increase between >1.35 and ≤1.5) | 300 to 1000 nM | –
18 | 178 to 183 °C | Cc1csc(-c2cc3ccc(N4C[C@@H](C)N[C@@H](C)C4)cc3oc2=O)n1 [Compound 286, 7-[(3R,5S)-3,5-dimethylpiperazin-1-yl]-3-(4-methyl-1,3-thiazol-2-yl)-2H-chromen-2-one] | 1 to 3 µM | * (maximum fold increase of ≤1.2) | – | –
19 | 308 to 310 °C | Cc1cnc2nc(-c3cc4ccc(N5C[C@@H](C)N[C@@H](C)C5)cc4oc3=O)cn2c1 [Compound 243, 7-[(3R,5S)-3,5-dimethylpiperazin-1-yl]-3-(6-methylimidazo[1,2-a]pyrimidin-2-yl)-2H-chromen-2-one] | 0.3 to 1 µM | ** (fold increase between >1.2 and ≤1.35) | 3000 to 10000 nM | –
20 | 258 to 262 °C | CCC1CN(c2ccc3cc(-c4cn5cc(C)nc(C)c5n4)c(=O)oc3c2)CCN1C (stereo not shown) [Compound 676, 3-(6,8-dimethylimidazo[1,2-a]pyrazin-2-yl)-7-(3-ethyl-4-methylpiperazin-1-yl)-2H-chromen-2-one] | < 0.1 µM | ***** (fold increase >1.65) | < 300 nM | –
21 | 234 to 244 °C | CN1CCCN(c2ccc3cc(-c4cn5cc(C6CC6)cc(F)c5n4)c(=O)oc3c2)CC1 [Compound 499, 3-(6-cyclopropyl-8-fluoroimidazo[1,2-a]pyridin-2-yl)-7-(4-methyl-1,4-diazepan-1-yl)-2H-chromen-2-one] | 0.3 to 1 µM | * (maximum fold increase of ≤1.2) | – | –
22 | 285 to 287 °C | Cc1cnc2nc(-c3cc4ccc(N5CCCN(C)CC5)cc4oc3=O)cn2c1 [Compound 250, 7-(4-methyl-1,4-diazepan-1-yl)-3-(6-methylimidazo[1,2-a]pyrimidin-2-yl)-2H-chromen-2-one] | 0.1 to 0.3 µM | *** (fold increase between >1.35 and ≤1.5) | 1000 to 3000 nM | –
23 | 281 to 284 °C | CN1CCN(c2cc(F)c3cc(-c4nc5ccccc5[nH]4)c(=O)oc3c2)CC1 [Compound 370, 3-(1H-benzimidazol-2-yl)-5-fluoro-7-(4-methylpiperazin-1-yl)-2H-chromen-2-one] | 0.3 to 1 µM | * (maximum fold increase of ≤1.2) | – | –
